Among the data in ChEMBL document CHEMBL5113408, “Design, synthesis and antitumour activity of novel 5(6)-amino-benzimidazolequinones containing a fused morpholine” (Eur J Med Chem, 2022) are IC50 values, retold here.

Assay type in all cases: functional, cell-based
In one experiment the test system is MGC-803. In words: Antiproliferative activity against human MGC-803 cells assessed as inhibition of cell growth by SRB assay. (The SRB assay estimates cell density from bound dye.)
For another experiment, the system named is MCF7. In words: Antiproliferative activity against human MCF7 cells assessed as inhibition of cell growth by SRB assay.
The test system of a further experiment is ECa-109 cell line. In words: Antiproliferative activity against human EC109 cells assessed as inhibition of cell growth by SRB assay.
The next experiment has as its system HeLa. In words: Antiproliferative activity against human HeLa cells assessed as inhibition of cell growth by SRB assay.

For `O=C1C=C(N2CCC2)C(=O)c2c1nc1n2[C@H]2OC[C@@H](O)[C@H]2OC1`, the IC50 in the experiment on MGC-803, in the experiment with MCF7, in the experiment with ECa-109 cell line and with HeLa was over 16 µM throughout.

For `O=C1C=C(Nc2cccc(Cl)c2)C(=O)c2c1nc1n2C[C@@H]([C@H](O)CO)OC1`, the half-maximal inhibitory concentration (IC50) (usually the midpoint of a concentration-inhibition curve) amounted to 5.27 µM in the experiment with MGC-803, 9.4 µM in the experiment with MCF7, 11.3 µM with ECa-109 cell line and 4.06 µM in the experiment with HeLa.

For the compound `O=C1C=C(Nc2ccccc2F)C(=O)c2c1nc1n2C[C@@H]([C@H](O)CO)OC1`, the IC50 in the experiment with MGC-803 was found to be 3.24 µM; in the experiment on MCF7, 9.17 µM; with ECa-109 cell line it was 7.88 µM; with HeLa, 5.86 µM.

Take `CCCc1ccc(NC2=CC(=O)c3nc4n(c3C2=O)C[C@@H]([C@H](O)CO)OC4)cc1`: the IC50 in the experiment on MGC-803 is 3.67 µM; with MCF7 it was 5.94 µM; with ECa-109 cell line, 6.88 µM; in the experiment with HeLa, 3.29 µM.

For the compound `O=C1C(NCc2ccccc2)=CC(=O)c2c1nc1n2[C@H]2OC[C@@H](O)[C@H]2OC1`, the IC50 with MGC-803 is 3.49 µM; in the experiment on MCF7 it was over 8 µM; with ECa-109 cell line, over 8 µM; in the experiment on HeLa it was 11 µM.

Consider `O=C1C(N2CCCC2)=CC(=O)c2c1nc1n2[C@H]2OC[C@@H](O)[C@H]2OC1`, for which the half-inhibitory concentration (IC50) in the experiment with MGC-803, with MCF7, in the experiment with ECa-109 cell line and in the experiment on HeLa was over 16 µM each time.

As for `O=C1C=C(Nc2ccccc2)C(=O)c2c1nc1n2[C@H]2OC[C@@H](O)[C@H]2OC1`, the IC50 in the experiment on MGC-803 is 1.73 µM; in the experiment on MCF7, over 4 µM; in the experiment with ECa-109 cell line, 4.97 µM; in the experiment on HeLa, 5.62 µM.

As for `O=C1C(Nc2cccc(Cl)c2)=CC(=O)c2c1nc1n2C[C@@H]([C@H](O)CO)OC1`, the IC50 with MGC-803 worked out at 2.89 µM; in the experiment on MCF7, 5.77 µM; in the experiment on ECa-109 cell line it was 5.99 µM; with HeLa, 13.8 µM.

As for `O=C1C=C(Nc2ccc(Br)cc2)C(=O)c2c1nc1n2[C@H]2OC[C@@H](O)[C@H]2OC1`, the IC50 stood at 1.01 µM in the experiment on MGC-803, 2.58 µM with MCF7, 2.85 µM in the experiment with ECa-109 cell line and 3.83 µM in the experiment on HeLa.

Consider `O=C1C(Nc2ccc(C(F)(F)F)cc2)=CC(=O)c2c1nc1n2C[C@@H]([C@H](O)CO)OC1`, for which the half-inhibitory concentration (IC50) in the experiment on MGC-803 is 2.02 µM; with MCF7 it was 4.28 µM; in the experiment with ECa-109 cell line it was 4.03 µM; in the experiment on HeLa, 7.18 µM.

As for `O=C1C=C(NC2CCCC2)C(=O)c2c1nc1n2[C@H]2OC[C@@H](O)[C@H]2OC1`, the IC50 in the experiment on MGC-803 is over 8 µM; in the experiment on MCF7 it was over 16 µM; with ECa-109 cell line it was over 16 µM; with HeLa, over 16 µM.

Take `O=C1C(Nc2cccc(Cl)c2)=CC(=O)c2c1nc1n2[C@H]2OC[C@@H](O)[C@H]2OC1`: the IC50 with MGC-803 was 1.53 µM; in the experiment on MCF7 it was 2.97 µM; with ECa-109 cell line, 3.08 µM; in the experiment on HeLa, 7.97 µM.

For `O=C1C(N2CCC2)=CC(=O)c2c1nc1n2[C@H]2OC[C@@H](O)[C@H]2OC1`, the IC50 in the experiment on MGC-803, with MCF7, in the experiment with ECa-109 cell line and with HeLa was over 16 µM each time.

Turning to `CCc1ccc(NC2=CC(=O)c3c(nc4n3[C@H]3OC[C@@H](O)[C@H]3OC4)C2=O)cc1`, the IC50 in the experiment with MGC-803 was 1.11 µM; in the experiment with MCF7 it was 8.99 µM; with ECa-109 cell line, over 4 µM; with HeLa, 6.51 µM.

For `Cc1ccc(NC2=CC(=O)c3c(nc4n3[C@H]3OC[C@@H](O)[C@H]3OC4)C2=O)cc1`, the IC50 with MGC-803 was 1.55 µM; in the experiment on MCF7, over 4 µM; with ECa-109 cell line, over 4 µM; in the experiment with HeLa, 6.59 µM.

For `O=C1C(Nc2ccc(I)cc2)=CC(=O)c2c1nc1n2[C@H]2OC[C@@H](O)[C@H]2OC1`, the IC50 worked out at 2.15 µM in the experiment on MGC-803, 3.89 µM in the experiment on MCF7, 2.53 µM in the experiment with ECa-109 cell line and 4.01 µM in the experiment with HeLa.

On to `O=C1C(Nc2ccccc2F)=CC(=O)c2c1nc1n2[C@H]2OC[C@@H](O)[C@H]2OC1`, for which the IC50 is 2 µM in the experiment with MGC-803, over 4 µM in the experiment with MCF7, 2.66 µM in the experiment on ECa-109 cell line and 9.82 µM in the experiment with HeLa.

For the compound `COc1ccccc1NC1=CC(=O)c2c(nc3n2C[C@@H]([C@H](O)CO)OC3)C1=O`, the IC50 worked out at 4.42 µM in the experiment on MGC-803, 6.81 µM in the experiment on MCF7, 7.64 µM in the experiment on ECa-109 cell line and 8.97 µM in the experiment with HeLa.

Consider `Cc1ccc(NC2=CC(=O)c3nc4n(c3C2=O)C[C@@H]([C@H](O)CO)OC4)cc1C`, for which the IC50 in the experiment with MGC-803 stood at 2.59 µM; with MCF7, 6.26 µM; in the experiment on ECa-109 cell line, 6.74 µM; in the experiment on HeLa, 4.5 µM.

Regarding `O=C1C=C(NCc2ccccc2)C(=O)c2c1nc1n2[C@H]2OC[C@@H](O)[C@H]2OC1`, the IC50 with MGC-803 is 2.67 µM; with MCF7, over 8 µM; in the experiment on ECa-109 cell line, over 8 µM; in the experiment with HeLa, over 8 µM.

Take `O=C1C=C(N2CCCCC2)C(=O)c2c1nc1n2[C@H]2OC[C@@H](O)[C@H]2OC1`: the IC50 in the experiment on MGC-803 was over 8 µM; in the experiment with MCF7, over 8 µM; in the experiment with ECa-109 cell line, over 8 µM; with HeLa, over 16 µM.

For `COc1cccc(NC2=CC(=O)c3c(nc4n3C[C@@H]([C@H](O)CO)OC4)C2=O)c1`, the IC50 with MGC-803 amounted to 3.58 µM; in the experiment with MCF7 it was 6.61 µM; in the experiment on ECa-109 cell line, 6.95 µM; in the experiment with HeLa, 6.14 µM.

Consider `O=C1C(Nc2cccc(F)c2)=CC(=O)c2c1nc1n2C[C@@H]([C@H](O)CO)OC1`, for which the IC50 with MGC-803 was 3.04 µM; in the experiment on MCF7 it was 5.89 µM; in the experiment with ECa-109 cell line, 6.56 µM; in the experiment with HeLa it was over 16 µM.

Regarding `O=C1C(Nc2cccc(F)c2)=CC(=O)c2c1nc1n2[C@H]2OC[C@@H](O)[C@H]2OC1`, the IC50 with MGC-803 was 1.47 µM; in the experiment with MCF7, over 4 µM; with ECa-109 cell line, 2.37 µM; in the experiment on HeLa, over 8 µM.

Turning to `O=C1C(NC2CCCC2)=CC(=O)c2c1nc1n2[C@H]2OC[C@@H](O)[C@H]2OC1`, the IC50 in the experiment with MGC-803, with MCF7, with ECa-109 cell line and with HeLa was over 16 µM each time.

As to `O=C1C(NC2CCCCC2)=CC(=O)c2c1nc1n2[C@H]2OC[C@@H](O)[C@H]2OC1`, the IC50 with MGC-803 was over 8 µM; in the experiment with MCF7, over 16 µM; with ECa-109 cell line it was over 16 µM; in the experiment with HeLa it was over 16 µM.

`O=C1C(Nc2ccc(Br)cc2)=CC(=O)c2c1nc1n2[C@H]2OC[C@@H](O)[C@H]2OC1`: the IC50 in the experiment with MGC-803 was 2.02 µM; with MCF7 it was 4.33 µM; in the experiment on ECa-109 cell line, 1.98 µM; with HeLa, 5.22 µM.

For the compound `O=C1C=C(Nc2cccc(F)c2)C(=O)c2c1nc1n2[C@H]2OC[C@@H](O)[C@H]2OC1`, the IC50 with MGC-803 was found to be 2.18 µM; in the experiment on MCF7, 5.5 µM; with ECa-109 cell line, 7.03 µM; in the experiment on HeLa, 6.44 µM.

In the case of `Cc1ccc(NC2=CC(=O)c3c(nc4n3C[C@@H]([C@H](O)CO)OC4)C2=O)cc1C`, the 50% inhibitory concentration (IC50) with MGC-803 was 5.46 µM; with MCF7 it was over 16 µM; with ECa-109 cell line it was over 16 µM; with HeLa, 10.1 µM.

Turning to `COc1ccc(NC2=CC(=O)c3nc4n(c3C2=O)[C@H]2OC[C@@H](O)[C@H]2OC4)cc1`, the IC50 is 1.68 µM in the experiment on MGC-803, 5.42 µM in the experiment on MCF7, over 4 µM in the experiment with ECa-109 cell line and 4.78 µM in the experiment on HeLa.

As for `O=C1C=C(Nc2ccc(Br)cc2)C(=O)c2c1nc1n2C[C@@H]([C@H](O)CO)OC1`, the IC50 was found to be 2.75 µM with MGC-803, 6.13 µM in the experiment with MCF7, 8.25 µM in the experiment with ECa-109 cell line and 4.22 µM in the experiment with HeLa.

As for `O=C1C(NC2CC2)=CC(=O)c2c1nc1n2C[C@@H]([C@H](O)CO)OC1`, the IC50 with MGC-803, in the experiment on MCF7, in the experiment on ECa-109 cell line and with HeLa was over 16 µM throughout.

Consider `O=C1C=C(Nc2ccc(C(F)(F)F)cc2)C(=O)c2c1nc1n2C[C@@H]([C@H](O)CO)OC1`, for which the IC50 in the experiment with MGC-803 turned out to be 6.52 µM; in the experiment on MCF7, 11.3 µM; in the experiment with ECa-109 cell line it was 6.73 µM; with HeLa, 6.09 µM.

Regarding `O=C1C(Nc2ccccc2)=CC(=O)c2c1nc1n2C[C@@H]([C@H](O)CO)OC1`, the 50% inhibitory concentration (IC50) was determined as 4.67 µM with MGC-803, 6.91 µM in the experiment with MCF7, 8.38 µM with ECa-109 cell line and 9.01 µM in the experiment with HeLa.

With `Cc1ccc(NC2=CC(=O)c3c(nc4n3[C@H]3OC[C@@H](O)[C@H]3OC4)C2=O)cc1C`, the IC50 in the experiment with MGC-803 was 1.05 µM; in the experiment with MCF7, 4.95 µM; with ECa-109 cell line, 4.09 µM; in the experiment with HeLa it was 4.32 µM.

As for `O=C1C(Nc2ccccc2)=CC(=O)c2c1nc1n2[C@H]2OC[C@@H](O)[C@H]2OC1`, the IC50 in the experiment on MGC-803 was 1.83 µM; with MCF7, over 4 µM; with ECa-109 cell line, 3.56 µM; in the experiment with HeLa it was over 8 µM.

`CCOc1ccc(NC2=CC(=O)c3c(nc4n3C[C@@H]([C@H](O)CO)OC4)C2=O)cc1`: the IC50 was 3.46 µM in the experiment on MGC-803, 8.63 µM in the experiment with MCF7, 7.84 µM in the experiment on ECa-109 cell line and 7.49 µM in the experiment on HeLa.

Turning to `COc1ccccc1NC1=CC(=O)c2nc3n(c2C1=O)[C@H]1OC[C@@H](O)[C@H]1OC3`, the concentration for half-maximal inhibition (IC50) was 1.63 µM with MGC-803, over 4 µM with MCF7, over 4 µM with ECa-109 cell line and 2.95 µM in the experiment on HeLa.

On to `COc1cccc(NC2=CC(=O)c3c(nc4n3[C@H]3OC[C@@H](O)[C@H]3OC4)C2=O)c1`, for which the concentration for half-maximal inhibition (IC50) in the experiment on MGC-803 is 1.79 µM; in the experiment on MCF7, 3.83 µM; in the experiment on ECa-109 cell line, 3.34 µM; in the experiment with HeLa, over 8 µM.

As to `CCOc1ccccc1NC1=CC(=O)c2nc3n(c2C1=O)[C@H]1OC[C@@H](O)[C@H]1OC3`, the IC50 in the experiment on MGC-803 was 2.45 µM; in the experiment on MCF7 it was over 4 µM; with ECa-109 cell line, 4.63 µM; with HeLa, 6.04 µM.
